# From US20020164333A1, “Bifunctional molecules and vectors complexed therewith for targeted gene delivery” (The Scripps Research Institute, priority 2000, published 2002)
# Test system: M21-L12 melanoma cells
# Experiment: Ad-mediated gene delivery after pretreatment of cells with PI3K inhibitors
# Assay type: cell-based, human
# Protocol: Efficient Ad internalization via αv integrins requires activation of PI3K, a key cellular signaling molecule. […] Ad mediated gene delivery was analyzed 48 hours post infection.
SMILES,"inhibition at 0.03 µM (Homo sapiens, read-out: inhibition of Ad-mediated gene delivery) [%]","inhibition of Ad-mediated gene delivery (cells pretreated 30 min with wortmannin (30 nM) or LY292004 (20 μM) before Ad.RSV.βgal complexed with D or DT, 48 hours post infection) [%]"
"COC[C@H]1OC(=O)c2coc3c2[C@@]1(C)C1=C(C3=O)[C@@H]2CCC(=O)[C@@]2(C)C[C@H]1OC(C)=O [Wortmannin, wortmannin]",~70,
O=c1cc(N2CCOCC2)oc2c(-c3ccccc3)cccc12 [LY294002],,~50
